According to patent US20180354921A1, “SUBSTITUTED OXADIAZOLES FOR COMBATING PHYTOPATHOGENIC FUNGI” (BASF SE, priority 2015, published 2018):

- melting point: 198 °C
SMILES: O=C(Cc1ccccc1)Nc1ccc(-c2noc(C(F)(F)F)n2)cc1 [Ex-1, 2-phenyl-N-[4-[5-(trifluoromethyl)-1,2,4-oxadiazol-3-yl]phenyl]acetamide]
